SMILES strings stand for the structures.

Settings in one data set: not given
For the compound `O=C1c2ccccc2C(=O)C1c1ccc(Br)cc1`, the melting point (as a rule, the temperature of the solid-liquid transition) is 138 °C.

As to `CCNc1ccccc1C`, the boiling point (in general, the temperature at which the vapour pressure of the liquid equals the pressure above it) worked out at 216 °C.

Consider `CC(C)C12CCC(C)(CC1)O2`, for which the boiling point turned out to be 174 °C, the log10 vapour pressure (mmHg) was determined as 0.286 and the melting point came to 1 °C.

For the compound `c1ccc(N=NNc2ccccc2)cc1`, the log10 vapour pressure (mmHg) was -4.72 and the melting point came to 98 °C.

In the case of `CCCC(=O)c1cc(O)c(O)cc1O`, the melting point was 154 °C.

`CCCCCCCCCCCCCCCCCC(=O)OC1CCCCC1`: the melting point was determined as 44 °C.

In turn, `Cc1cc2ccccc2[nH]1` came in with a boiling point of 272 °C and a melting point of 61 °C.

The compound `Cc1ccc(-c2cc(C(F)(F)F)nn2-c2ccc(S(N)(=O)=O)cc2)cc1` displayed a melting point of 158 °C.

The compound `CCOC(C)OCC` registered a boiling point of 102 °C, a log10 vapour pressure (mmHg) of 1.44 and a melting point of -100 °C.

Take `Oc1cc(O)c(Cl)cc1Cl`: the boiling point was found to be 254 °C and the melting point came out at 113 °C.

`Clc1ccc(-c2ccccc2Cl)cc1` showed a log10 Henry constant (atm·m³/mol) of -3.64, a log10 Koa of 7.4, a log10 Koc (L/kg) of 4.34 and a log10 vapour pressure (mmHg) of -2.68.

As for `O=C(NCO)NS(=O)(=O)c1ccc(NC(=O)c2ccccc2C(=O)O)cc1`, the melting point was 162 °C.

In the case of `O=C(c1ccc(Br)cc1)c1ccc(Br)cc1`, the boiling point was determined as 395 °C and the melting point stood at 177 °C.

`NC(=O)NCCCC(N)C(=O)O` (stereo in doubt) had a melting point of 236 °C.

In the case of `CC(C)=CC1C(C(=O)OCN2C(=O)C3=C(CCCC3)C2=O)C1(C)C` (centres undefined), the melting point was determined as 69 °C and the ready biodegradability result is given as “not readily biodegradable”.

Consider `CCCCCCCCCCCCCCCCN`, for which the boiling point came to 322 °C, the log10 vapour pressure (mmHg) is -3.88 and the melting point came to 46.8 °C.

The compound `C=C(C)c1ccc(C(C)(C)N=C=O)cc1` registered a log10 vapour pressure (mmHg) of -2.33.

In turn, `COc1cc(Cl)ccc1O` came in with a boiling point of 241 °C and a melting point of 16.5 °C.

The compound `O=C1CC[C@@H](C(=O)O)N1` showed a melting point of 185 °C.

`N=C(N)c1ccc(Oc2ccc(C(=N)N)cc2)cc1` registered a melting point of 216 °C.

The compound `C[Si](C)(F)c1ccccc1` registered a log10 vapour pressure (mmHg) of 0.463.

`Brc1ccccc1I` had a boiling point of 257 °C and a melting point of 9.5 °C.

The compound `N#CCCC[Si](Cl)(Cl)Cl` yielded a boiling point of 238 °C.

In the case of `Nc1nc[nH]n1`, the log10 Koc (L/kg) stood at 1.25, the log10 vapour pressure (mmHg) is -6.36, the melting point is 159 °C and the ready biodegradability entry is listed as “not readily biodegradable”.

In turn, `ClC(Cl)(Cl)c1ccc(C(Cl)(Cl)Cl)cc1` registered a melting point of 109 °C.

For `CNC(=O)Oc1cccc(C(C)C)c1`, the melting point was determined as 73 °C.

In the case of `ClC(Cl)(Br)C(Cl)(Cl)Br`, the melting point was 202 °C.

Turning to `Cc1c(O)cccc1O`, the boiling point was determined as 264 °C, the melting point is 120 °C and the ready biodegradability entry is “not readily biodegradable”.

Regarding `OCCCCCO`, the boiling point is 239 °C, the log10 vapour pressure (mmHg) is -2.41, the melting point is -18 °C and the ready biodegradability result is given as “readily biodegradable”.

`CC/C(=C(/CC)c1ccc(O)cc1)c1ccc(O)cc1`: the log10 Koc (L/kg) worked out at 4.14.

The compound `CCC(=O)C(=O)O` displayed a melting point of 33 °C.

`CN(C)C(=O)Cl`: the boiling point came to 167 °C, the log10 vapour pressure (mmHg) amounted to 0.29 and the melting point is -33 °C.

`ICCCCI` gave a melting point of 5.8 °C.

In turn, `CCC=CCC(=O)O` yielded a boiling point of 208 °C and a melting point of 12 °C.

The compound `CCCOC(=O)C(=O)OCCC` registered a boiling point of 211 °C and a melting point of -44.3 °C.

Compound `C=C(Cl)CC` had a boiling point of 58.5 °C.

Take `C/C=C\CC(C)(C)C`: the boiling point turned out to be 107 °C.

Turning to `CCCC(=O)CCC`, the boiling point was 144 °C, the log10 vapour pressure (mmHg) turned out to be 0.787 and the melting point is -33 °C.

As for `Clc1cccc(Cl)c1N=C1NCCN1`, the melting point was 130 °C.

The compound `c1ccc2[nH]cnc2c1` returned a melting point of 170 °C.

In turn, `O=C(O)/C=C/c1ccccc1` had a boiling point of 300 °C, a log10 vapour pressure (mmHg) of -4.49 and a melting point of 133 °C.

`CC(C)OC(=O)C1(S(=O)(=O)c2ccc([N+](=O)[O-])cc2)CCC1` showed a melting point of 65.5 °C.

With `Cc1ccc2ccc3ccc(C)cc3c2c1`, the melting point turned out to be 145 °C.

In the case of `CCCCCCCCCCCCCCCCCC`, the boiling point came to 316 °C, the log10 biodegradation half-life (days) is 1.32, the log10 vapour pressure (mmHg) was -3.47 and the melting point was found to be 28.2 °C. For the same compound, the ready biodegradability entry is reported as “readily biodegradable”.

As for `COc1ccc2c(c1)[nH]c1c(C)nccc12`, the melting point stood at 273 °C.

Regarding `O=S(=O)(O)OCCOc1ccc(Cl)cc1Cl`, the melting point is 170 °C.

For the compound `ClC1=C(Cl)C(Cl)(Cl)C(Cl)(Cl)C1(Cl)Cl`, the boiling point was 283 °C and the melting point amounted to 40 °C.

In the case of `Clc1ccc(Cl)c(-c2c(Cl)c(Cl)cc(Cl)c2Cl)c1Cl`, the log10 Henry constant (atm·m³/mol) is -4.62.

In turn, `O=[N+]([O-])c1ccc(CCO)cc1` returned a melting point of 63 °C.

Compound `NNC(=O)c1cccc(Br)c1` showed a melting point of 158 °C.

Turning to `OC1CCCCC1`, the boiling point is 161 °C, the log10 Henry constant (atm·m³/mol) was -5.36, the log10 Koa was 5.18 and the log10 vapour pressure (mmHg) is -0.0969. For the same compound, the melting point is 25.4 °C and the ready biodegradability result is on record as “readily biodegradable”.

`COC(=O)c1ccc(O)cc1` came in with a log10 Koa of 8.57 and a melting point of 131 °C.

`Fc1ccccn1` came in with a boiling point of 127 °C.

Compound `NC(=O)/C=C/C(=O)[O-]` yielded a melting point of 172 °C.

`O=C(O)CCCCCCCCCCC(=O)O` came in with a melting point of 128 °C.

`FC(F)OC(C(F)(F)F)C(F)(F)F`: the boiling point was 42.1 °C and the log10 vapour pressure (mmHg) is 2.59.

With `Cc1ccccc1N=C(N)Nc1ccccc1C`, the ready biodegradability result is reported as “not readily biodegradable”.

Regarding `CC(=O)N[C@@H](CS)C(=O)O`, the melting point amounted to 110 °C.

With `O=C(O)CCCCCCBr`, the boiling point was determined as 280 °C, the melting point was found to be 31 °C and the ready biodegradability result is reported as “readily biodegradable”.

Compound `ClC(Cl)(Cl)Cl` displayed a boiling point of 76.8 °C, a log10 Henry constant (atm·m³/mol) of -1.56, a log10 Koa of 2.79 and a log10 Koc (L/kg) of 1.85. In addition, the log10 vapour pressure (mmHg) turned out to be 2.06, the melting point was -23 °C and the ready biodegradability result was “not readily biodegradable”.

Consider `CCC(C)(Br)CC`, for which the boiling point was 130 °C.

Take `CC(=O)S[C@@H]1CC2=CC(=O)CC[C@]2(C)[C@H]2CC[C@@]3(C)[C@@H](CC[C@@]34CCC(=O)O4)[C@H]12`: the melting point came out at 208 °C.

In turn, `CCCCCCCC(=O)OCCCC` came in with a boiling point of 240 °C and a melting point of -42.9 °C.

`CC(Cl)Cl` returned a boiling point of 57.4 °C, a log10 Henry constant (atm·m³/mol) of -2.25, a log10 Koa of 2.41 and a log10 Koc (L/kg) of 1.48. The log10 vapour pressure (mmHg) came to 2.36, the melting point was -96.9 °C and the ready biodegradability result is “not readily biodegradable”.

Take `N#Cc1ccncc1C#N`: the melting point came to 80 °C.

`CC=C1CCCCC1` had a boiling point of 136 °C.

The compound `CCOC(=O)CC(C(C)=O)C(=O)OCC` (centres undefined) displayed a boiling point of 255 °C.

In turn, `CCC=CC(C)=O` displayed a boiling point of 140 °C.

Consider `OCc1ccc2c(c1)OCO2`, for which the melting point stood at 58 °C.

The compound `Cl[Si](Cl)(Cl)c1ccccc1` returned a boiling point of 201 °C and a log10 vapour pressure (mmHg) of -0.371.

As to `O=S1(=O)CCCO1`, the melting point turned out to be 31.5 °C and the ready biodegradability entry was “readily biodegradable”.

`CC(=O)Oc1ccccc1C(=O)Oc1ccccc1C(=O)O` came in with a melting point of 159 °C.

`Fc1c(F)c(F)c(S)c(F)c1F`: the boiling point was 143 °C and the melting point was -24 °C.

`Cc1cc(Cl)cc2c1SC(=C1Sc3c(C)cc(Cl)cc3C1=O)C2=O` came in with a log10 vapour pressure (mmHg) of -9.52.

The same data set, now with this note: fish.
With `Nc1nc[nH]n1`, the log10 BCF was 0.49.

`ClC(Cl)(Cl)Cl` came in with a log10 BCF of 0.87 and a log10 biotransformation half-life (days) of -1.19.

The values are drawn from the OPERA property sets (Mansouri et al. 2018).
